The values that follow come from US5063208A, “Peptidyl aminodiol renin inhibitors” (Abbott Laboratories, priority 1990, dated 1991).

The assay addresses T1, human renal renin (Homo sapiens, UniProt P00797).
T1 construct: human renal renin, free from acid proteolytic activity; from tissue
T1 sequence (P00797 67-406): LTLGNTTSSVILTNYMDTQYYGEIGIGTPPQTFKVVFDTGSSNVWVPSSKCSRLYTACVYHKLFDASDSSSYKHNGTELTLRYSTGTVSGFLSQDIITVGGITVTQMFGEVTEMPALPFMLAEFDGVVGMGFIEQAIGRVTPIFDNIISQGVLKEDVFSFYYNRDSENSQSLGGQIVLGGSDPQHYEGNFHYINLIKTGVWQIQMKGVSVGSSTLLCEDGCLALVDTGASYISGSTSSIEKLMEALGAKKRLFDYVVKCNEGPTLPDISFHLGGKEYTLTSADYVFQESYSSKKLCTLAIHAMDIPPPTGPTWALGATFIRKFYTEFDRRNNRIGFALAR
The assay is described as follows: Inhibition of human renal renin in vitro (angiotensin I formed measured by radioimmunoassay). The format is biochemical. As to conditions: human renal renin free from acid proteolytic activity, renin substrate human angiotensinogen, 37 degrees C, pH 6.0; read-out: IC50 (molar concentration required to cause 50% inhibition). On the procedure:
The compounds of the invention are also useful for treating congestive heart failure in a mammal. […] At the end of the incubation, the amount of angiotensin I formed is measured by radioimmunoassay and the molar concentration required to cause 50% inhibition, expressed as the IC50, is calculated.
Consider `CC(C)C[C@H](O)[C@H](O)[C@H](CC1CCCCC1)NC(=O)[C@H](Cc1cscn1)NC(=O)[C@@H](CC1=CSC2=NCCN12)Cc1ccccc1` [Example 105, (2R)-2-Benzyl-3-(5,6-dihydroimidazo[2,1-b]thiazol-3-yl)propionyl-L-(4-thiazolyl)Ala Amide of (2S,3R,4S)-2-Amino-1-cyclohexyl-3,4-dihydroxy-6-methylheptane], for which the IC50 is 1.1 nM.
As for `CC(C)C[C@H](O)[C@H](O)[C@H](CC1CCCCC1)NC(=O)[C@H](Cc1cscn1)NC(=O)[C@@H](CC(=O)N1CCN(C2CC2)CC1)Cc1ccccc1` [Example 125, (2R)-2-Benzyl-3-[(4-cyclopropylpiperazin-1-yl)carbonyl]propionyl-L-(4-thiazolyl)Ala Amide of (2S,3R,4S)-2-Amino-1-cyclohexyl-3,4-dihydroxy-6-methylheptane], the figure is 0.55 nM; as for `CC(C)C[C@H](O)[C@H](O)[C@H](CC1CCCCC1)NC(=O)[C@H](Cc1cccs1)NC(=O)[C@@H](CC(=O)N(C)CCn1cccn1)Cc1ccccc1` [Example 106, (2R)-2-Benzyl-3-[(2-pyrazol-1-ylethyl)methylaminocarbonyl]propionyl-L-(2-thienyl)Ala Amide of (2S,3R,4S)-2-Amino-1-cyclohexyl-3,4-dihydroxy-6-methylheptane], 0.38 nM.
